Patent publication US8993608B2, “Method for inhibiting topoisomerase II” (Synta Pharmaceuticals Corp., priority 2007, dated 2015)

Key:
[1] = tested on: Her2; test: Degradation of Her2 in BT-474 cells after treatment (Method 1, SDS-PAGE/immunoblot); format: cell-based, Human; conditions: overnight
Procedure: Human high-Her2 breast carcinoma BT474 (HTB-20), SK-BR-3 (HTB-30) and MCF-7 breast carcinoma (HTB-22) from American Type Culture Collection, Va., USA were grown in Dulbecco's modified Eagle's medium with 4 mM L-glutamine and antibiotics (100 IU/ml penicillin and 100 ug/ml streptomycine;GibcoBRL). To obtain exponential cell growth, cells were trypsinized, counted and seeded at a cell density of 0.5×10^6 cells /ml regularly, every 3 days. All experiments were performed on day 1 after cell passage.
BT-474 cells were treated with 0.5 μM, 2 μM, or 5 μM of 17AAG (a positive control) or 0.5 μM, 2 μM, or 5 μM of Compound 108 or Compound 49 overnight in DMEM medium. After treatment, each cytoplasmic sample was prepared from 1×10^6 cells by incubation of cell lysis buffer (#9803, cell Signaling Technology) on ice for 10 minutes. The resulting supernatant used as the cytosol fractions were dissolved with sample buffer for SDS-PAGE and run on a SDS-PAGE gel, blotted onto a nitrocellulose membrane by using semi-dry transfer. Non-specific binding to nitrocellulose was blocked with 5% skim milk in TBS with 0.5% Tween at roomtemperature for 1 hour, then probed with anti-Her2/ErB2 mAb (rabbit IgG, #2242, Cell Signaling) and anti-Tubulin (T9026, Sigma) as housekeeping control protein. HRP-conjugated goat anti-rabbit IgG (H+L) and HRP-conjugated horse anti-mouse IgG (H+L) were used as secondary Ab (#7074, #7076, Cell Signaling) and LumiGLO reagent, 20× Peroxide (#7003, Cell Signaling) was used for visualization.

[2] = tested on: Hsp90 protein; test: Malachite Green Assay of ATPase activity of Hsp90 protein; format: biochemical
Procedure: Hsp90 protein was obtained from Stressgen (Cat#SPP-770). Assay buffer: 100 mM Tris-HCl, Ph7.4, 20 mM KCl, 6 mM MgCl2. […] Malachite green reagent was added to the reaction. […] The plate was read by an ELISA reader with an absorbance at 620 nm.

[3] = target: T1, topoisomerase II (Homo sapiens, UniProt P11388); test: kDNA decatenation assay for inhibition of topoisomerase II; format: biochemical; conditions: 200 nM, lane 8 of FIG. 3
T1 construct: purchased TopoGEN, Inc
T1 sequence (P11388 whole entry): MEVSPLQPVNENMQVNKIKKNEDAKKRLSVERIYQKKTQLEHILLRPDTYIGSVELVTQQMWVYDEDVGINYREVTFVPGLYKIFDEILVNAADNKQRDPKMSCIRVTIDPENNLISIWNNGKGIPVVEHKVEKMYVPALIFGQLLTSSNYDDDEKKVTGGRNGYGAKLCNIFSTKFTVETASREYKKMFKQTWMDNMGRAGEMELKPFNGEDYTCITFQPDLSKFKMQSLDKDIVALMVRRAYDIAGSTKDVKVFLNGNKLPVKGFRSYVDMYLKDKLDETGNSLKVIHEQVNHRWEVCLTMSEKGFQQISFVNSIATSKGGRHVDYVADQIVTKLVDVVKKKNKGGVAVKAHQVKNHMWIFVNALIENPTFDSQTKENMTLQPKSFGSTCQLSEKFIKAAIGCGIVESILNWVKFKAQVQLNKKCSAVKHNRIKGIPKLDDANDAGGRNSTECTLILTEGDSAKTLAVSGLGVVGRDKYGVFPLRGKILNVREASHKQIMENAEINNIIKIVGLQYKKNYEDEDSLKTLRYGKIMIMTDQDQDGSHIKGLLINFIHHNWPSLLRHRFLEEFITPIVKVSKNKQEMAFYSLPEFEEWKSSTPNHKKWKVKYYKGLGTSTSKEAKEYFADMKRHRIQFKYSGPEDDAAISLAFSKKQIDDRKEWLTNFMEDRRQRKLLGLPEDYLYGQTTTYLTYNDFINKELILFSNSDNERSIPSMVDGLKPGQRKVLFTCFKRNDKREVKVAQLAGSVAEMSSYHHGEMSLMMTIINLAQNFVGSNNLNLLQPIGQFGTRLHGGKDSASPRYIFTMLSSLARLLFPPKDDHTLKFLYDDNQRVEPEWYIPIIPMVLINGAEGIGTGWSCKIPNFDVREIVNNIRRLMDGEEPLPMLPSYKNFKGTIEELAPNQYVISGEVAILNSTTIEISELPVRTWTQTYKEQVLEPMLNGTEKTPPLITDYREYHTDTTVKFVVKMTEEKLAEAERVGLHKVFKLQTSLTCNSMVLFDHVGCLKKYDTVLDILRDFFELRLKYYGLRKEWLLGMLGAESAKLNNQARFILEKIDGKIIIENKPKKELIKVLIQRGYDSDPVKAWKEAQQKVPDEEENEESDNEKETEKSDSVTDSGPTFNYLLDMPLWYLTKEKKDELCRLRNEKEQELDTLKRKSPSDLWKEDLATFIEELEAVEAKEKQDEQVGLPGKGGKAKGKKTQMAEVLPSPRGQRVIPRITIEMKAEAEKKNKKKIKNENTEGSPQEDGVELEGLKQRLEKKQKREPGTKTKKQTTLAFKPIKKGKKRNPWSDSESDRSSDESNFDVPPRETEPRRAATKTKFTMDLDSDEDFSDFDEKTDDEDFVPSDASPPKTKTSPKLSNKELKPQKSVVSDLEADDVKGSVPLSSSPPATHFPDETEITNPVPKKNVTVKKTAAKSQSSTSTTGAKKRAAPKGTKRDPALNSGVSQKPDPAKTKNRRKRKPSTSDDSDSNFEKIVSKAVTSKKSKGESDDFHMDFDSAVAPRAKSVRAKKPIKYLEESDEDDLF
Procedure: The ability of compounds of the invention to inhibit the activity of topoisomerase II was examined with a kDNA decatenation assay (TopoGEN, Inc. Port Orange, Fla.). Substrate kDNA was mixed with compounds and incubated at 37° C. for 30 min. The reaction was stop by adding ⅕ volume of stop buffer. 20 μl of the reaction was loaded on 1% agarose gel. Image of decatenation of kDNA by compounds was taken by Kodak Image Station 440.
In the presence of topoisomerase II, decatenated nicked and circular kDNAs are located at the bottom of the gel. […] Table 9 indicates the ability of compounds of the invention to inhibit the activity of topoisomease II.

[4] = target: human topo II (Homo sapiens, UniProt P11388); conditions: Gadelle et al., Biochemical Pharmacology (2006); cited from earlier work
human topo II, sequence (P11388 whole entry): as above

Row | inhibition of ATPase activity of Hsp90 ([2]; 4 μM) | SMILES | degradation of Her2 ([1]; 0.5 μM) | degradation of Her2 ([1]; 2 μM) | degradation of Her2 ([1]; 5 μM) | inhibition of ATPase activity of Hsp90 ([2]; 40 μM) | inhibition of the activity of topoisomerase II [3] | inhibition of the activity of human topo II [4]
1 | – | CCc1cc(-c2nnc(S)n2-c2cccc3ccccc23)c(O)cc1O [Compound 49, 3-(2,4-Dihydroxy-5-ethyl-phenyl)-4-(naphthalen-1-yl)-5-mercapto-triazole] | partial degradated | complete degradation | complete degradation | – | – | –
2 | significant inhibition | Oc1ccc(-c2nnc(S)n2-c2cccc3ccccc23)c(O)c1 [Compound 108, 3-(2,4-Dihydroxy-phenyl)-4-(naphthalen-1-yl)-5-mercapto-triazole] | partially degradated | partially degradated | almost completely degraded | even greater inhibition of ATPase activity of Hsp90 than geldanamycin | – | –
3 | – | C[C@@H]1C[C@H]2O[C@@H]2/C=C\C=C\C(=O)Cc2c(Cl)c(O)cc(O)c2C(=O)O1 [radicicol] | – | – | – | – | completely inhibits the activity of topoisomerase II | can inhibit the activity of human topo II
